Experimental findings from US7736856B2, “Method of screening drug with the use of 67 kDa laminin receptor and drug obtained thereby” (Kyushu TLO Company, Limited, priority 2003, dated 2010) are described below.

Experiment [1] relates to A549 cells. Put plainly: Binding to A549 cells (empty vector / parent) by surface plasmon resonance sensor. The conditions noted are these: for cell binding to A549 cells: surface plasmon resonance biosensor, 5 μM. Also on record: species or system human. The procedure: (§1) The binding of various component (5 μM) to the cells was determined by using a surface plasmon resonance sensor SPR670 (Nippon Laser and Electronic Lab., Nagoya, Japan). For the measurement, the cells were fixed on a gold membrane (Nippon Laser and Electronic Lab.) according to a standard fixation method for protein. Precisely, a gold membrane was dipped in a solution in ethanol of […] of 4,4-dithiodibutyric acid, DDA (Tokyo Kasei Kogyo Co., Ltd., Tokyo, Japan) (this was prepared by dissolving 2.38 mg of DDA in 10 ml of 99% ethanol followed by diluting it with ethanol to 1/100) in such a manner that its gold surface could face upward, and gently stirred at room temperature for 30 minutes. Next, this was washed twice with ethanol with no pressure applied to the gold surface to thereby introduce a self-assembly membrane (SA membrane). 25 mg of a water-soluble carbodiimide, EDC (Wako Pure Chemicals) was dissolved in 1 ml of ultra-pure water; and 15 mg of N-hydroxysuccinimide, NHS (Wako Pure Chemicals) was dissolved in 9 ml of 1,4-dioxane (Nacalai Tesque, Inc.). These solutions were mixed, and the SA membrane-processed gold membrane was dipped into the mixture, and gently stirred at room temperature for 10 minutes. 10 ml of ultra-pure water was added, and further stirred at room temperature for 5 minutes. This was washed twice with ultra-pure water with no water pressure applied to the gold surface thereof, then dried (in air), and mounted on a cartridge. The cells were suspended to a density of 3×10^5 cells/ml (in a flow buffer, PBS), and 20 μl of the cell suspension was dropwise applied onto the gold membrane and kept at room temperature for 30 minutes so as to fix the cells onto the membrane. Next, a green tea catechin diluted with PBS to have a concentration of 1, 10, 25 or 50 μM was applied thereto, and the change in the surface plasmon resonance angle was determined so as to monitor its binding to the cells.
(§2) 67LR is a membrane protein existing in a cell membrane, and the fact that the EGCG effect was enhanced in the cells with the gene expression vector introduced therein would be due to the increase in the EGCG binding. Accordingly, the EGCG binding to the cells was determined by the sue of a surface plasmon resonance sensor. EGCG was used at 5 μM.
For orientation: Surface plasmon resonance follows binding to a sensor surface in real time, without labels.

For experiment [2], the target named is T1, 67LR forced expression cells (A549 with 67LR expression vector) (Homo sapiens, UniProt P08865).
T1 construct: expressed in transfected cells; host or cells: A549 cells, transient transfection with pTARGET-hLamininR (FuGENE 6)
Put plainly: Binding to 67LR forced expression cells by surface plasmon resonance sensor. The conditions noted are these: for change of cell binding in 67LR forced expression cells: surface plasmon resonance biosensor, 5 μM; for angle change (binding amount): EGCG 5 μM. The procedure: as §1, §2

Experiment [3] deals with 67LR forced expression cells (A549). Nature of the experiment: Cell growth test (cell count, Tripanblue staining) on 67LR transient expression A549 cells. To be noted: for number of the cells / growth inhibiting effect (influence of 67LR gene introduction) / survival rate (influence of 67LR gene introduction): 5 μM, 0.5 μg pTARGET-hLamininR in A549 cells; for survival rate (influence of 67LR gene introduction): Tripanblue staining. It is filed as cell-based, human. The procedure:
The 67LR expression vector constructed (pTARGET-hLamininR) was introduced into A549 cells, using FuGENE™ 6 Transfection Reagent. Its details are described below. The cells were inoculated into a 10% FBS-ERDF medium at 1×10^4 cells/ml. By keeping at 37° C. for 24 hours, the cells were adhered to the medium. Next, a fresh ERDF medium was put into a tube, and FuGENE™ 6 (three times the amount of the gene) was directly added and gently mixed. Next, pTARGET-hLamininR was added and gently mixed, and this was kept at room temperature for 30 minutes. This was added to the medium, and kept at 37° C. for 48 hours. The cells were washed with a medium, and then the medium was changed with a fresh one.
(§3) Various components of various concentrations were added to the 67LR transient expression cells, and treated in a 5% FBS-containing ERDF medium at 37° C. for 48 hours. After the treatment, the number of the cells was counted, and the survival rate of the cells was determined according to a Tripanblue staining method.
Using FuGENE™ 6 Transfection Reagent, a 67LR expression vector (pTARGET-hLamininR) was introduced into A549 cells according to the method mentioned below. The cells were inoculated at 1×10^4 cells/ml (10% FBS-ERDF medium). After 24 hours, a fresh ERDF medium was put into a tube, and FuGENE™ 6 (three times the amount of the gene) was directly added and gently mixed. Next, pTARGET-hLamininR of varying concentrations were added and gently mixed, and this was kept at room temperature for 30 minutes. This was added to the medium, and was continuously cultured at 37° C. for 48 hours. EGCG of various concentrations were added to the 67LR transient expression cells, and treated with a 5% FBS-containing ERDF medium at 37° C. for 48 hours. After the treatment, the number of the cells was counted and the survival rate thereof was determined according to a Tripanblue staining method.
First, the influence of the substances on the growth of 67LR forced expression cells was investigated. Similarly to the above, 0.5 μg of pTARGET-hLamininR was introduced into A549 cells by the lipofection method, followed by cultivation at 37° C. for 48 hours. Then, the cells were treated with various tea components each having a final concentration of 5 μM. The cells were further cultivated at 37° C. for 48 hours, and then the number of the cells and the survival rate thereof were determined.

The target in experiment [4] is T2, 67LR forced expression cells (Homo sapiens, UniProt P08865).
T2 construct: expressed in transfected cells; host or cells: A549 cells, transient transfection with pTARGET-hLamininR (FuGENE 6)
Nature of the experiment: Growth inhibition by EGCG after anti-67LR antibody pretreatment of 67LR forced expression cells. It is filed as cell-based. The procedure:
as §3
Regarding […] pretreatment, an anti-67LR antibody having a final concentration of 10 μg/ml (1% FBS-containing ERDF medium) was treated at 37° C. for 30 minutes, and then EGCG treatment was carried out so as to investigate the influence thereof on the antibody-treatment cells. As a negative control, the same treatment was carried out with mouse IgM.

Experiment [5] has as its target 67LR on cell surfaces (Homo sapiens, UniProt P08865). Put plainly: Flow cytometry: influence of EGCG treatment on detection of cell surface 67LR by anti-67LR antibody. It is filed as binding. The procedure:
It is known that 67LR is expressed on cell surfaces. Therefore, 67LR expressed on the surfaces of the cells was detected through flow cytometry analysis using an anti-human laminin receptor (LR) antibody. The cells were collected, and using a 1.5-ml Eppendorf tube, they were added to 100 μl, as a whole, of 1% FBS-PBS at 1×10^6 cells therein. A primary antibody, anti-human LR antibody was added to it to have a final concentration of 10 μg/ml. This was incubated at 4° C. for 30 minutes, and then washed once with PBS. Next, a secondary antibody, anti-mouse IgM FITC-labeled antibody capable of recognizing an isotype of LR antibody was added to 25 μl, as a whole, of 1% FBS-PBS so as to have a final concentration of 12.5 μg/ml. This was incubated at 4° C. for 30 minutes, then washed twice with PBS, and re-suspended in PBS, and analyzed with a flow cytometer. A negative control IgM antibody of the same concentration (10 μg/ml) was reacted in the same manner as herein. The 67LR expression amount on the cell surfaces was indicated by the center value of the fluorescent intensity of LR.
For the purpose of investigating the influence of EGCG treatment on the cell surface expression of 67LR, the cells were treated with an EGCG-added 1% FBS-PBS having a final EGCG concentration of 50 μM, and then kept at 37° C. for 30 minutes. This was washed once with PBS. Then, this was treated in the same manner as above with the primary antibody and others, and analyzed. As a control, the cells were treated with an EGCG-free 1% FBS-PBS.
Background: Flow cytometry measures light scatter and fluorescence of single cells or particles in a stream.

Experiment [6] deals with T2, 67LR forced expression cells. Put plainly: Binding competition test of EGCG and anti-67LR antibody (surface plasmon resonance sensor). To be noted: cells pretreated with anti-67LR antibody 10 μg/ml, 37° C., 30 minutes. The procedure: as §1, with “These solutions were mixed, and the SA membrane-processed gold membrane was dipped into the mixture, and gently stirred at room temperature for 10 minutes. 10 ml of ultra-pure water was added, and further stirred at room temperature for 5 minutes. This was washed twice with ultra-pure water with no water pressure applied to the gold surface thereof, then dried (in air), and mounted on a cartridge. The cells were suspended to a density of 3×10^5 cells/ml (in a flow buffer, PBS), and 20 μl of the cell suspension was dropwise applied onto the gold membrane and kept at room temperature for 30 minutes so as to fix the cells onto the membrane.” left out, “cells. […]” for “cells.”

Take `O=C(O[C@@H]1Cc2c(O)cc(O)cc2O[C@@H]1c1ccc(O)c(O)c1)c1cc(O)c(O)c(O)c1` [ECG, epicatechin-3-O-gallate]: in experiment [1], the “cell binding to A549 cells” value was “showed cell binding though not comparable to that of EGCG”. Moreover, the “change of cell binding in 67LR forced expression cells” value (from here on “change of cell binding”) in experiment [2] is reported as “cell binding increased”. For the same compound, the “number of the cells / growth inhibiting effect (influence of 67LR gene introduction)” value in experiment [3] (48 hours) is “increase in the growth inhibiting effect”.
Taken in the same sequence, the figures for `Cn1c(=O)c2c(ncn2C)n(C)c1=O` [caffeine, Caffeine] were “did not show cell binding”, “no change” and “no influence”.
In the case of `O=c1c(O)c(-c2ccc(O)c(O)c2)oc2cc(O)cc(O)c12` [quercetin], the “cell binding to A549 cells” value in experiment [1] was “did not show cell binding”. Moreover, in experiment [2], the “change of cell binding” value is “no change”. Besides, in experiment [3] (48 hours), the “number of the cells / growth inhibiting effect (influence of 67LR gene introduction)” value is on record as “no influence” and the “survival rate (influence of 67LR gene introduction)” value is on record as “no influence”.
On to catechin, for which the “cell binding to A549 cells” value in experiment [1] is “no binding”. For the same compound, the “change of cell binding” value in experiment [2] is “no change”. In experiment [3] (48 hours), the “number of the cells / growth inhibiting effect (influence of 67LR gene introduction)” value was “no influence” and the “survival rate (influence of 67LR gene introduction)” value is “no influence”.
With `Oc1cc(O)c2c(c1)O[C@H](c1cc(O)c(O)c(O)c1)[C@H](O)C2` [EGC, epigallocatechin], the “cell binding to A549 cells” value in experiment [1] was “no binding”. For the same compound, in experiment [2], the “change of cell binding” value was “no change”. In experiment [3] (48 hours), the “number of the cells / growth inhibiting effect (influence of 67LR gene introduction)” value is listed as “no influence” and the “survival rate (influence of 67LR gene introduction)” value is given as “no influence”.
In the case of epigallocatechin-3-O-gallate [EGCG], the survival rate result in experiment [4] (EGCG with or without antibody pretreatment, Tripanblue staining) is “no influence on the survival rate was found”. In experiment [4] (anti-67LR antibody treatment before EGCG), the “growth inhibiting activity after antibody treatment” value is “the growth inhibiting activity was lost”. For the same compound, the “apparent 67LR expression detected by anti-67LR antibody after EGCG” value was “it was the same” in experiment [5] (EGCG 50 μM before antibody, 67LR-introduced cells); “The same phenomenon was found” in experiment [5] (EGCG 50 μM before antibody, cells with empty vector); “apparently disappeared” in experiment [5] (EGCG 50 μM, 37° C., 30 minutes before antibody, control A549 cells). For the same compound, the “angle change (binding amount)” value in experiment [1] (EGCG 5 μM, A549 cells with empty vector) was “Only a little angle change”; in experiment [2] (cells with 0.25 μg of 67LR expression vector), “a great increase in the angle”; in experiment [2] (cells with 0.5 μg of 67LR expression vector) it was “a further greater increase in the angle”. Moreover, the “number of the cells / growth inhibiting effect (influence of 67LR gene introduction)” value in experiment [3] (48 hours) is on record as “increase in the growth inhibiting effect”. Moreover, the growth inhibiting activity result in experiment [3] (EGCG 0.1 μM, 67LR forced expression cells) was “showed its growth inhibiting activity”. Moreover, the cell growth inhibition entry in experiment [3] (EGCG of various concentrations, 67LR transiently expressed A549 cells, 5% FBS ERDF, 37° C., 48 hours) is reported as “concentration-dependent cell growth inhibition was observed”. In experiment [3] (pTARGET-hLamininR of varying concentrations, EGCG, 48 hours), the “cell growth inhibition versus 67LR gene amount introduced” value is on record as “in proportion to the 67LR gene amount introduced into the cells, cell growth inhibition was also observed”. Moreover, the “EGCG binding amount (angle change)” value in experiment [6] is recorded as “reduction”. Moreover, the EGCG binding speed entry in experiment [6] is “reduction”.
As to `COc1cc(C(=O)O[C@@H]2Cc3c(O)cc(O)cc3O[C@@H]2c2cc(O)c(O)c(O)c2)cc(O)c1O` [EGCG3″Me, epigallocatechin-3-(3-O-methyl)-gallate], the “cell binding to A549 cells” value in experiment [1] was “showed cell binding though not comparable to that of EGCG”. Moreover, the “change of cell binding” value in experiment [2] was “cell binding increased”. Moreover, the “number of the cells / growth inhibiting effect (influence of 67LR gene introduction)” value in experiment [3] (48 hours) is “increase in the growth inhibiting effect”.
